Measured values taken from patent US10758534B2 (Vertex Pharmaceuticals Incorporated, priority 2014, dated 2020).

Biological target: T1, F508del (Homo sapiens, UniProt P13569, DEL508-508)
T1 construct: expressed in transfected cells
Assay: Protocol 1: membrane potential optical assay (FLIPR III, voltage sensing dye), identification of potentiator compounds
Type: cell-based
Conditions: Table 3, compounds of Table 1
Outline: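 Read-out: change in voltage-sensing dye fluorescence (FLIPR III) as a measure of F508del conductance. Temperature-corrected (27° C, 24 hrs) NIH 3T3 cells expressing F508del are pretreated with potentiators, dye-loaded, then stimulated with forskolin under a chloride ion gradient using chloride-free gluconate bath.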

T1 sequence (P13569 with tags, fused parts or gaps DEL508-508): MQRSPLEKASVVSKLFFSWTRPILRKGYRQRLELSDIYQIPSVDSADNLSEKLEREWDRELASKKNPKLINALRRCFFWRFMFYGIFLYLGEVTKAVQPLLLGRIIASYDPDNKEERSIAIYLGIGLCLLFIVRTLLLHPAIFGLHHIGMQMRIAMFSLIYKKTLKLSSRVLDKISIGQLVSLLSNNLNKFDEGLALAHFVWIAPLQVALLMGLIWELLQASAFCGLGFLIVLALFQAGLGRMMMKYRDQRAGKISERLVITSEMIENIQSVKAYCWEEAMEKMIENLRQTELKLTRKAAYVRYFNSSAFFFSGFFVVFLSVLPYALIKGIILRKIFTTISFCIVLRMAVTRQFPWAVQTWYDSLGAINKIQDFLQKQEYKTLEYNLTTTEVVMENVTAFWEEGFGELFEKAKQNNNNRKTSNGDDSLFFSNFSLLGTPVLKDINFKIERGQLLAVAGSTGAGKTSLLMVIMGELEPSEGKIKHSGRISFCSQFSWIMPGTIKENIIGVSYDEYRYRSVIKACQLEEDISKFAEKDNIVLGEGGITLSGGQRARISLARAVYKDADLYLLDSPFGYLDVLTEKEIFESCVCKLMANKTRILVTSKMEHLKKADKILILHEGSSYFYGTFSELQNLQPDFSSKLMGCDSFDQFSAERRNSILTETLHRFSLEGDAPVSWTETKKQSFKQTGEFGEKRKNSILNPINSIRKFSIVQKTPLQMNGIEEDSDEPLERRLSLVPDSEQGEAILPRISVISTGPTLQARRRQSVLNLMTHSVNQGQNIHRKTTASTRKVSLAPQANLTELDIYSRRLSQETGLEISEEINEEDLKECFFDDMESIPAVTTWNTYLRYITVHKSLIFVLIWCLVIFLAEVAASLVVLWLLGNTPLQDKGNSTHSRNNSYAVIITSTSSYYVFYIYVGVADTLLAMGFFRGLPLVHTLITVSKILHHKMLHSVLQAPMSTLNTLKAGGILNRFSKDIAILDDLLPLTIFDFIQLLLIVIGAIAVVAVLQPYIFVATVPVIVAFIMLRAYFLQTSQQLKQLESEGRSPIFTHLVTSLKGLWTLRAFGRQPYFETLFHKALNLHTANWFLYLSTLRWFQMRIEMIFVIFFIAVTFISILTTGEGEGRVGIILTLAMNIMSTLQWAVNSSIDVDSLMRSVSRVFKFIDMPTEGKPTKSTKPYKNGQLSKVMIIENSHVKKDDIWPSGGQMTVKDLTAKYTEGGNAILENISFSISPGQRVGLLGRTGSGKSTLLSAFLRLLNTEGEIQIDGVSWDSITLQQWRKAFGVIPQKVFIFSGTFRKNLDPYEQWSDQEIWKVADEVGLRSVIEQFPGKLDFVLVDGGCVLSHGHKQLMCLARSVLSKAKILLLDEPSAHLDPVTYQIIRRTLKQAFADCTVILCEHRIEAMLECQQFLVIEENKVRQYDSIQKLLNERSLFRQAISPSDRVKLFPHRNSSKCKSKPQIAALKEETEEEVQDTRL

| Compound | EC30 |
| --- | --- |
| COC[C@H]1C[C@@H]1c1ccc(C(=O)NS(=O)(=O)c2cccc(N)n2)c(N2C[C@@H](C)CC2(C)C)n1 [Compound 1575, N-[(6-amino-2-pyridyl)sulfonyl]-6-[(1S,2S)-2-(methoxymethyl)cyclopropyl]-2-[(4S)-2,2,4-trimethylpyrrolidin-1-yl]pyridine-3-carboxamide] | ++ (“++” means between 3 uM and 10 uM) |
| CCOc1cccc2c1CN(Cc1ccc(C(C)C)cc1)C2(C)C(=O)NS(=O)(=O)c1cccc(N)n1 (stereo not shown) [Compound 1576, N-[(6-amino-2-pyridyl)sulfonyl]-4-ethoxy-2-[(4-isopropylphenyl)methyl]-1-methyl-isoindoline-1-carboxamide] | +++ (“+++” means <3 uM) |
| C[C@@H]1CN(c2nc(C(C)(C)C)c(C3=CC4CCC3C4)cc2C(=O)NS(=O)(=O)c2cccc(N)n2)C(C)(C)C1 (stereo partly drawn) [Compound 1577, N-[(6-amino-2-pyridyl)sulfonyl]-5-(3-bicyclo[2.2.1]hept-2-enyl)-6-tert-butyl-2-[(4S)-2,2,4-trimethylpyrrolidin-1-yl]pyridine-3-carboxamide] | +++ (“+++” means <3 uM) |
| CC(C)COc1cc(F)cc(-c2ccc(C(=O)NS(=O)(=O)c3cccc(N)n3)c(OCCC3CCOCC3)n2)c1 [Compound 1579, N-[(6-amino-2-pyridyl)sulfonyl]-6-(3-fluoro-5-isobutoxy-phenyl)-2-(2-tetrahydropyran-4-ylethoxy)pyridine-3-carboxamide] | +++ (“+++” means <3 uM) |
| CC(C)COc1cc(F)cc(-c2ccc(C(=O)NS(=O)(=O)c3cccc(N)n3)c(OC3CCC3)n2)c1 [Compound 1580, N-[(6-amino-2-pyridyl)sulfonyl]-2-(cyclobutoxy)-6-(3-fluoro-5-isobutoxy-phenyl)pyridine-3-carboxamide] | +++ (“+++” means <3 uM) |
| C[C@@H]1CN(c2nc(-c3cc(F)cc(OCC(C)(C)O)c3)ccc2C(=O)NS(=O)(=O)c2ccccc2)C(C)(C)C1 [Compound 1581, N-(benzenesulfonyl)-6-[3-fluoro-5-(2-hydroxy-2-methyl-propoxy)phenyl]-2-[(4S)-2,2,4-trimethylpyrrolidin-1-yl]pyridine-3-carboxamide] | +++ (“+++” means <3 uM) |
| CCOc1cccc2c1CN(Cc1c(C)cc(C)cc1C)[C@@]2(C)C(=O)NS(=O)(=O)c1cccc(N)n1 [Compound 1582, (1R)—N-[(6-amino-2-pyridyl)sulfonyl]-4-ethoxy-1-methyl-2-[(2,4,6-trimethylphenyl)methyl]isoindoline-1-carboxamide] | +++ (“+++” means <3 uM) |
| CCOc1cccc2c1CN(Cc1ccc(F)cc1)C2(C)C(=O)NS(=O)(=O)c1cccc(F)n1 (stereo not shown) [Compound 1583, 4-ethoxy-2-[(4-fluorophenyl)methyl]-N-[(6-fluoro-2-pyridyl)sulfonyl]-1-methyl-isoindoline-1-carboxamide] | ++ (“++” means between 3 uM and 10 uM) |
| CCOc1cccc2c1CN(Cc1c(C)cc(C)cc1C)C2(C)C(=O)NS(=O)(=O)c1ccc(CC)c(N)c1 (stereo not shown) [Compound 1584, N-(3-amino-4-ethyl-phenyl)sulfonyl-4-ethoxy-1-methyl-2-[(2,4,6-trimethylphenyl)methyl]isoindoline-1-carboxamide] | +++ (“+++” means <3 uM) |
| Cc1cc(C)c(Cn2nc(C(C)(C)C)cc2C(=O)NS(=O)(=O)c2ccncc2)c(C)c1 [Compound 1585, 5-tert-butyl-N-(4-pyridylsulfonyl)-2-[7(2,4,6-trimethylphenyl)methyl]pyrazole-3-carboxamide] | +++ (“+++” means <3 uM) |
| CC(=O)NC1CCCN(S(=O)(=O)NC(=O)c2ccc(-c3cc(F)cc(OCC(C)C)c3)nc2N2CC(C)CC2(C)C)C1 (stereo not shown) [Compound 1586, N-[(3-acetamido-1-piperidyl)sulfonyl]-6-(3-fluoro-5-isobutoxy-phenyl)-2-(2,2,4-trimethylpyrrolidin-1-yl)pyridine-3-carboxamide] | +++ (“+++” means <3 uM) |
| CCOc1cccc2c1CN(Cc1c(C)cc(C)cc1C)C2(C)C(=O)NS(=O)(=O)c1ccc(Cl)c(N)c1 (stereo not shown) [Compound 1587, N-(3-amino-4-chloro-phenyl)sulfonyl-4-ethoxy-1-methyl-2-[(2,4,6-trimethylphenyl)methyl]isoindoline-1-carboxamide] | +++ (“+++” means <3 uM) |
| CC(C)Oc1ccc(-c2ccc(C(=O)NS(=O)(=O)c3ccc(OCc4ccccc4)c(N)n3)c(N3[C@H](C)CC[C@@H]3C)n2)cn1 [Compound 1588, N-[(6-amino-5-benzyloxy-2-pyridyl)sulfonyl]-2-[(2S,5R)-2,5-dimethylpyrrolidin-1-yl]-6-(6-isopropoxy-3-pyridyl)pyridine-3-carboxamide] | +++ (“+++” means <3 uM) |
| Cc1cc(C)c(Oc2nc(N3[C@H](C)CC[C@@H]3C)c(C)cc2C(=O)NS(=O)(=O)c2cccc(N)n2)c(C)c1 [Compound 1589, N-[(6-amino-2-pyridyl)sulfonyl]-6-[(2R,5S)-2,5-dimethylpyrrolidin-1-yl]-5-methyl-2-(2,4,6-trimethylphenoxy)pyridine-3-carboxamide] | +++ (“+++” means <3 uM) |
| CC(C)=C(C)c1cnc(N2CC(C)CC2(C)C)c(C(=O)NS(=O)(=O)c2cccc(N)n2)c1 (stereo not shown) [Compound 1590, N-[(6-amino-2-pyridyl)sulfonyl]-5-(1,2-dimethylprop-1-enyl)-2-(2,2,4-trimethylpyrrolidin-1-yl)pyridine-3-carboxamide] | +++ (“+++” means <3 uM) |
| CCOc1cccc2c1CN(Cc1c(C)cc(C)cc1C)C2(C)C(=O)NS(=O)(=O)c1cccnc1N (stereo not shown) [Compound 1591, N-[(2-amino-3-pyridyl)sulfonyl]-4-ethoxy-1-methyl-2-[(2,4,6-trimethylphenyl)methyl]isoindoline-1-carboxamide] | +++ (“+++” means <3 uM) |
| CC(C)COc1cc(F)cc(-c2ccc(C(=O)NS(=O)(=O)c3cccc(N)n3)c(O[C@@H]3CCOC3)n2)c1 [Compound 1592, N-[(6-amino-2-pyridyl)sulfonyl]-6-(3-fluoro-5-isobutoxy-phenyl)-2-[(3R)-tetrahydrofuran-3-yl]oxy-pyridine-3-carboxamide] | +++ (“+++” means <3 uM) |
| CC(C)COc1cc(F)cc(-c2ccc(C(=O)NS(=O)(=O)c3cccnc3N)c(N3C[C@@H](C)CC3(C)C)n2)c1 [Compound 1593, N-[(2-amino-3-pyridyl)sulfonyl]-6-(3-fluoro-5-isobutoxy-phenyl)-2-[(4S)-2,2,4-trimethylpyrrolidin-1-yl]pyridine-3-carboxamide] | +++ (“+++” means <3 uM) |
| C[C@@H]1CN(c2nc(C3=CCOCC3)ccc2C(=O)NS(=O)(=O)c2cccc(N)n2)C(C)(C)C1 [Compound 1594, N-[(6-amino-2-pyridyl)sulfonyl]-6-(3,6-dihydro-2H-pyran-4-yl)-2-[(4S)-2,2,4-trimethylpyrrolidin-1-yl]pyridine-3-carboxamide] | +++ (“+++” means <3 uM) |
| C[C@@H]1CN(c2nc(C3CCOCC3)ccc2C(=O)NS(=O)(=O)c2cccc(N)n2)C(C)(C)C1 [Compound 1595, N-[(6-amino-2-pyridyl)sulfonyl]-6-tetrahydropyran-4-yl-2-[(4S)-2,2,4-trimethylpyrrolidin-1-yl]pyridine-3-carboxamide] | +++ (“+++” means <3 uM) |
| CCOc1cccc2c1CN(Cc1c(C)cc(C)cc1C)C2(C)C(=O)NS(=O)(=O)c1ccc(Cl)c(N)n1 (stereo not shown) [Compound 1596, N-[(6-amino-5-chloro-2-pyridyl)sulfonyl]-4-ethoxy-1-methyl-2-[(2,4,6-trimethylphenyl)methyl]isoindoline-1-carboxamide] | +++ (“+++” means <3 uM) |
| CCOc1cccc2c1CN(Cc1c(C)cc(C)cc1C)C2(C)C(=O)NS(=O)(=O)c1cccc(C(F)F)n1 (stereo not shown) [Compound 1597, N-[[6-(difluoromethyl)-2-pyridyl]sulfonyl]-4-ethoxy-1-methyl-2-[(2,4,6-trimethylphenyl)methyl]isoindoline-1-carboxamide] | +++ (“+++” means <3 uM) |
| Cc1cc(C)c(Oc2nc(C3=CC(C)(C)CCC3=O)ccc2C(=O)NS(=O)(=O)c2cccc(N)n2)c(C)c1 [Compound 1598, N-[(6-amino-2-pyridyl)sulfonyl]-6-(3,3-dimethyl-6-oxo-cyclohexen-1-yl)-2-(2,4,6-trimethylphenoxy)pyridine-3-carboxamide] | +++ (“+++” means <3 uM) |
| CC(C)Cc1ccc(C(=O)NS(=O)(=O)c2cccc(N)n2)c(N2C[C@@H](C)CC2(C)C)n1 [Compound 1599, N-[(6-amino-2-pyridyl)sulfonyl]-6-isobutyl-2-[(4S)-2,2,4-trimethylpyrrolidin-1-yl]pyridine-3-carboxamide] | +++ (“+++” means <3 uM) |
| CC(C)COc1cc(F)cc(-c2ccc(C(=O)NS(=O)(=O)N3CCCC(NS(C)(=O)=O)C3)c(N3CC(C)CC3(C)C)n2)c1 (stereo not shown) [Compound 1600, 6-(3-fluoro-5-isobutoxy-phenyl)-N—[[3-(methanesulfonamido)-1-piperidyl]sulfonyl]-2-(2,2,4-trimethylpyrrolidin-1-yl)pyridine-3-carboxamide] | +++ (“+++” means <3 uM) |
| CC1CN(c2nc(C(C)(C)C)c(C3=CCCCC3)cc2C(=O)NS(=O)(=O)c2cccc(N)n2)C(C)(C)C1 (stereo not shown) [Compound 1601, N-[(6-amino-2-pyridyl)sulfonyl]-6-tert-butyl-5-(cyclohexen-1-yl)-2-(2,2,4-trimethylpyrrolidin-1-yl)pyridine-3-carboxamide] | +++ (“+++” means <3 uM) |
| Cc1cc(C)c(Oc2nc(C(C)(C)C)ccc2C(=O)N=S(N)(=O)c2cccc(N)n2)c(C)c1 (stereo not shown) [Compound 1602, N-[amino-(6-amino-2-pyridyl)-oxo-$1^6-sulfanylidene]-6-tert-butyl-2-(2,4,6-trimethylphenoxy)pyridine-3-carboxamide] | +++ (“+++” means <3 uM) |
| C[C@@H]1CN(c2ncc(Cl)cc2C(=O)NS(=O)(=O)c2cccc(N)n2)C(C)(C)C1 [Compound 1603, N-[(6-amino-2-pyridyl)sulfonyl]-5-chloro-2-[(4S)-2,2,4-trimethylpyrrolidin-1-yl]pyridine-3-carboxamide] | ++ (“++” means between 3 uM and 10 uM) |
